Assay: Evans blue delivery after FUS-BBBO, fluorescence imaging of brain sections
Assay type: in vivo, mice (C57BL/6)
Settings: mouse brain
Procedure: Following the FUS-BBBO treatment as described in Example 3, the brains of the mice were harvested and harvested sections were fluorescence imaged using an LI-COR imaging system (Pearl Trilogy; 700 Channel laser source (Ex 785 nm/Em 820 nm); resolution 85 μm). Enhanced fluorescence signals associated with the delivery of Evans blue through the FUS-disrupted BBB were determined by comparing sections from FUS-BBBO and corresponding untreated brain halves.
Evans Blue has been commonly used as a model drug for evaluating the FUS-BBBO drug delivery outcome. The harvested mouse brains were cut into 1-mm thick coronal sections using the mouse brain matrix (World Precision Instrument, Sarasota, Fla., USA). Fluorescence images of brain sections were taken using a LI-COR imaging system (Pearl Trilogy; 700 Channel laser source (Ex 785 nm/Em 820 nm); resolution 85 μm) and analyzed using Matlab (Mathworks, Natick, Mass., USA). […] Pixels with intensities above the background autofluorescence intensity were identified for each brain section. Evans blue delivery volume was calculated by the total number of pixels with enhanced fluorescence signal in all the brain sections. The mean fluorescence intensity of pixels with enhanced fluorescence signal in all the brain sections was calculated to represent the signal intensity of the delivered Evans blue.

Evans Blue extravasation (FUS at 0.4 MPa and 0.57 MPa for all frequencies (1.5, 3.0, 6.0 MHz) and 0.2 MPa for 1.5 MHz): observed
Evans Blue extravasation (FUS at 3.0 MHz and 6.0 MHz at 0.2 MPa): not detectable
Evans Blue delivery volume (i.v., FUS-BBBO at 1.5 MHz, 0.57 MPa (largest BBB opening volume), mean±SD): 69±3.8 mm^3
Evans Blue signal intensity (i.v., FUS-BBBO at 1.5 MHz, 0.57 MPa, mean fluorescence intensity, mean±SD): 47±8.2
Evans Blue delivery volume (i.v., FUS-BBBO at 6 MHz, 0.4 MPa (smallest BBB opening volume), mean±SD): 8.9±1.3 mm^3
SMILES: Cc1cc(-c2ccc(/N=N/c3ccc4c(S(=O)(=O)O)cc(S(=O)(=O)O)c(N)c4c3O)c(C)c2)ccc1/N=N/c1ccc2c(S(=O)(=O)O)cc(S(=O)(=O)O)c(N)c2c1O [Evans Blue]
